Among the data in ChEMBL document CHEMBL4028801, “A multifactorial approach to hepatobiliary transporter assessment enables improved therapeutic compound development” (Toxicol Sci, 2013) are IC50 values, retold here.

Structures can show the parent of a compound that is named as a salt.

For test [1], the target named is ATP-binding cassette sub-family C member 3 (Homo sapiens, UniProt O15438). Kind of test: Inhibition of human MRP3 overexpressed in Sf9 insect cell membrane vesicles assessed as uptake of [3H]-estradiol-17beta-D-glucuronide in presence of ATP and GSH measured after 10 mins by membrane vesicle transport assay. Type of test: ADME, cell-based.
Test [2] deals with T1, ATP-binding cassette sub-family C member 4 (Homo sapiens, UniProt O15439).
T1 sequence (O15439 whole entry): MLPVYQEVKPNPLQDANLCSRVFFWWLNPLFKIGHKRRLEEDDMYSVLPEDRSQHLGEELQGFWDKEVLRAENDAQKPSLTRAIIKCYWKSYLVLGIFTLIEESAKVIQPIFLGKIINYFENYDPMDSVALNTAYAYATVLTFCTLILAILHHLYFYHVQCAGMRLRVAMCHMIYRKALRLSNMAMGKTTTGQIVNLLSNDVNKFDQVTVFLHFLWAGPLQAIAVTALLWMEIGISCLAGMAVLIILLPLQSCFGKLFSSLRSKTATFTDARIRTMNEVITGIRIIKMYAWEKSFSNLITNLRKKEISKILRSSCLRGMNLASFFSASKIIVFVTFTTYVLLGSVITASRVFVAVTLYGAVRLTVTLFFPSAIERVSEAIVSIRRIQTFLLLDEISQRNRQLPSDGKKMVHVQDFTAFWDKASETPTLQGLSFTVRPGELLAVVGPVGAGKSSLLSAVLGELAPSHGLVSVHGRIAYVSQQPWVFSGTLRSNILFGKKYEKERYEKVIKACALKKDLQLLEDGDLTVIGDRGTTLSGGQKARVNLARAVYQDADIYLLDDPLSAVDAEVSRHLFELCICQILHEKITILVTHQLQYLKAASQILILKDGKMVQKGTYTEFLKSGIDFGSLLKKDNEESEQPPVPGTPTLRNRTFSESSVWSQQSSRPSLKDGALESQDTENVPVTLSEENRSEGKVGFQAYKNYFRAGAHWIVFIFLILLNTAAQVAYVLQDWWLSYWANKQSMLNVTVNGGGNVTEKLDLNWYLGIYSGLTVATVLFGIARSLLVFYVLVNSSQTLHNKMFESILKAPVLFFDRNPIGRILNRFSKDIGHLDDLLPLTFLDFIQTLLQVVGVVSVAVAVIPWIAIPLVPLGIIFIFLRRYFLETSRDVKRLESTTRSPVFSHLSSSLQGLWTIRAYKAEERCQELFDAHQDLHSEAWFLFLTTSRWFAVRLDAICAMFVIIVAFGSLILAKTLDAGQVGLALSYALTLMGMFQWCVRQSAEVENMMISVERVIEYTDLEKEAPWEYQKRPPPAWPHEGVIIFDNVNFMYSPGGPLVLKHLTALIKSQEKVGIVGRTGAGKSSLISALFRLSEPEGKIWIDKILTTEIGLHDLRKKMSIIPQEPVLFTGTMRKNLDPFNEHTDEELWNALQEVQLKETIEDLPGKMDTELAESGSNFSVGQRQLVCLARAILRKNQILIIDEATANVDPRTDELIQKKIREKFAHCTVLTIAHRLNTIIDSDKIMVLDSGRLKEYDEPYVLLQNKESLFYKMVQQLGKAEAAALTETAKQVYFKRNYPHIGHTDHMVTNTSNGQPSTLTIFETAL
Kind of test: Inhibition of human MRP4 overexpressed in Sf9 cell membrane vesicles assessed as uptake of [3H]-estradiol-17beta-D-glucuronide in presence of ATP and GSH measured after 20 mins by membrane vesicle transport assay. Type of test: ADME, cell-based.

Test [3] addresses Bile salt export pump (Homo sapiens, UniProt O95342). Kind of test: Inhibition of human BSEP overexpressed in Sf9 cell membrane vesicles assessed as uptake of [3H]-taurocholate in presence of ATP measured after 15 to 20 mins by membrane vesicle transport assay. In kind it is ADME, cell-based.
In test [4] the target is ATP-binding cassette sub-family C member 2 (Homo sapiens, UniProt Q92887). Kind of test: Inhibition of human MRP2 overexpressed in Sf9 cell membrane vesicles assessed as uptake of [3H]-estradiol-17beta-D-glucuronide in presence of ATP and GSH measured after 20 mins by membrane vesicle transport assay.
ATP-binding cassette sub-family C member 2, sequence (Q92887 whole entry): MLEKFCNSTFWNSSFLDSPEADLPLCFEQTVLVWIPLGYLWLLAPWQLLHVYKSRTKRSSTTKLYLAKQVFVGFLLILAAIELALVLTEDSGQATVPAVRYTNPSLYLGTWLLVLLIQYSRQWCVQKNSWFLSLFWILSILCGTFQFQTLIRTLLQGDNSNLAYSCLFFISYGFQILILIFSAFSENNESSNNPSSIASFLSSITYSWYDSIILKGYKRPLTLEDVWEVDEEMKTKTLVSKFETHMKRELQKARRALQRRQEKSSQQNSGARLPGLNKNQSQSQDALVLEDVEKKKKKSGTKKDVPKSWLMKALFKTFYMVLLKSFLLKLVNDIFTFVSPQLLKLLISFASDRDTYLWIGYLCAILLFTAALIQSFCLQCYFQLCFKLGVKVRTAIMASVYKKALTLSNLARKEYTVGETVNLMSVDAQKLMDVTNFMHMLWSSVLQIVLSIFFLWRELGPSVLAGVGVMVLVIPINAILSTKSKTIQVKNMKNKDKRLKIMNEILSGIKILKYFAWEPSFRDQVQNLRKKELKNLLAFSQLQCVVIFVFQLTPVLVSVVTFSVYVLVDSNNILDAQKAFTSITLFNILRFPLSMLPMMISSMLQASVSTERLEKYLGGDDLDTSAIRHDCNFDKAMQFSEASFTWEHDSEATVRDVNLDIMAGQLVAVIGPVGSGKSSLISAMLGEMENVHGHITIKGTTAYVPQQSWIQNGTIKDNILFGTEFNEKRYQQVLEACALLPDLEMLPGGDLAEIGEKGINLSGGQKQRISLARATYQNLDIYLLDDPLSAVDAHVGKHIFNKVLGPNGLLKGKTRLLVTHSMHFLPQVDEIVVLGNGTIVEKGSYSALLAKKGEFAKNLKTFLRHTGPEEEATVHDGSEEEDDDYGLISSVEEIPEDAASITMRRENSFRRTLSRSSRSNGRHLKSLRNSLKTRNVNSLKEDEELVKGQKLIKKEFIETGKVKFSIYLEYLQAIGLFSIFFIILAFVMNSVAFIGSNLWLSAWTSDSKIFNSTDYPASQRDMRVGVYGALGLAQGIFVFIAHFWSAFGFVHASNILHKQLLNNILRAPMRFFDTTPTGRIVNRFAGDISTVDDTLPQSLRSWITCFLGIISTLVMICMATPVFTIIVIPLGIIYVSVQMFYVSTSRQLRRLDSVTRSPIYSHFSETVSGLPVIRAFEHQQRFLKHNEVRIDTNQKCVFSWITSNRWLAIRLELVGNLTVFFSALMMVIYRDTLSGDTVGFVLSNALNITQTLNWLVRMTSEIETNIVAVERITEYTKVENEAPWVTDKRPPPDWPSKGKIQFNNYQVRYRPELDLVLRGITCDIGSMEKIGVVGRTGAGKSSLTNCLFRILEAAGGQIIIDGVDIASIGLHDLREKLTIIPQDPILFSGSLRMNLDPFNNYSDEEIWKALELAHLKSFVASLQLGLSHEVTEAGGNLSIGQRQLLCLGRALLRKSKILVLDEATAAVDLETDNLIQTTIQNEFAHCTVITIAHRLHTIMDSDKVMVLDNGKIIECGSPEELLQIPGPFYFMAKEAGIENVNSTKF

ATP-binding cassette sub-family C member 3, sequence (O15438 whole entry): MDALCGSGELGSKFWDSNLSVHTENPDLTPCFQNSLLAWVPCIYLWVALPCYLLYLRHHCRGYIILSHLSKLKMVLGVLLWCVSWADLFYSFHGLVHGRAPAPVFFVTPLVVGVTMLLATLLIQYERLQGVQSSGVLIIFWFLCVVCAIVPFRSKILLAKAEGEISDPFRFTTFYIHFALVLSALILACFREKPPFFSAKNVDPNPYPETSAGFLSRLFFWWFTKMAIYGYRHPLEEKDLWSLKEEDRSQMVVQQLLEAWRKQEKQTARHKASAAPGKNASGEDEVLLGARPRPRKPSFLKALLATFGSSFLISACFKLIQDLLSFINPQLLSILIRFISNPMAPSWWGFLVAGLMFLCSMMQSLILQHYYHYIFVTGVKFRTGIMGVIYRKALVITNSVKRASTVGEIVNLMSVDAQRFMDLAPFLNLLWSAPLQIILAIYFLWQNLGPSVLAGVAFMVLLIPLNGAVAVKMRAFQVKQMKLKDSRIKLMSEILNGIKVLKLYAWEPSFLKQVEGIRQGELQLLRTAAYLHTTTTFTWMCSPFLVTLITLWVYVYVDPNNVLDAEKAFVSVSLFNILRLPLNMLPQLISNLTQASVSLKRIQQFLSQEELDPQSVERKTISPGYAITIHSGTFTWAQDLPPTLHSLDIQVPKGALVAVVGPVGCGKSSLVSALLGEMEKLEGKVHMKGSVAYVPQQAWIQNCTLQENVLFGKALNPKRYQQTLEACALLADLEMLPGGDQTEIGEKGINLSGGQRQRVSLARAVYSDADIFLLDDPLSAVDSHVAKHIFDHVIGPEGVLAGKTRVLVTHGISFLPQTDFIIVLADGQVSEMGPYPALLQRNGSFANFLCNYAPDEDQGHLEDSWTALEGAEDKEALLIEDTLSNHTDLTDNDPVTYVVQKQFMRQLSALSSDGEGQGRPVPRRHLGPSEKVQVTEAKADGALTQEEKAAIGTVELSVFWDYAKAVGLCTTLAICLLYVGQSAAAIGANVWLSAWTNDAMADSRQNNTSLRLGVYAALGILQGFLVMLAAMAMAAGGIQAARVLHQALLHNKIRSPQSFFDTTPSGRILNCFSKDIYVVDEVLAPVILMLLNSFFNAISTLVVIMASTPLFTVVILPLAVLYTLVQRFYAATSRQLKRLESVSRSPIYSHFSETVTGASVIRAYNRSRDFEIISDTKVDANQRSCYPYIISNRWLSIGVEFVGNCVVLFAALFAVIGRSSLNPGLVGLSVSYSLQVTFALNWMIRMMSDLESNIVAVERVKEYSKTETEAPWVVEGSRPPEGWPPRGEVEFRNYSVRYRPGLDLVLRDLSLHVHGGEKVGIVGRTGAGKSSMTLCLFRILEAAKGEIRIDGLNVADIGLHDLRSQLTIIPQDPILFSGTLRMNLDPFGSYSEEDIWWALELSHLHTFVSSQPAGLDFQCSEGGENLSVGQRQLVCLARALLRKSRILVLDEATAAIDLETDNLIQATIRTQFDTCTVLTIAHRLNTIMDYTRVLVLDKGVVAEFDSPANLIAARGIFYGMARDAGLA
Bile salt export pump, sequence (O95342 whole entry): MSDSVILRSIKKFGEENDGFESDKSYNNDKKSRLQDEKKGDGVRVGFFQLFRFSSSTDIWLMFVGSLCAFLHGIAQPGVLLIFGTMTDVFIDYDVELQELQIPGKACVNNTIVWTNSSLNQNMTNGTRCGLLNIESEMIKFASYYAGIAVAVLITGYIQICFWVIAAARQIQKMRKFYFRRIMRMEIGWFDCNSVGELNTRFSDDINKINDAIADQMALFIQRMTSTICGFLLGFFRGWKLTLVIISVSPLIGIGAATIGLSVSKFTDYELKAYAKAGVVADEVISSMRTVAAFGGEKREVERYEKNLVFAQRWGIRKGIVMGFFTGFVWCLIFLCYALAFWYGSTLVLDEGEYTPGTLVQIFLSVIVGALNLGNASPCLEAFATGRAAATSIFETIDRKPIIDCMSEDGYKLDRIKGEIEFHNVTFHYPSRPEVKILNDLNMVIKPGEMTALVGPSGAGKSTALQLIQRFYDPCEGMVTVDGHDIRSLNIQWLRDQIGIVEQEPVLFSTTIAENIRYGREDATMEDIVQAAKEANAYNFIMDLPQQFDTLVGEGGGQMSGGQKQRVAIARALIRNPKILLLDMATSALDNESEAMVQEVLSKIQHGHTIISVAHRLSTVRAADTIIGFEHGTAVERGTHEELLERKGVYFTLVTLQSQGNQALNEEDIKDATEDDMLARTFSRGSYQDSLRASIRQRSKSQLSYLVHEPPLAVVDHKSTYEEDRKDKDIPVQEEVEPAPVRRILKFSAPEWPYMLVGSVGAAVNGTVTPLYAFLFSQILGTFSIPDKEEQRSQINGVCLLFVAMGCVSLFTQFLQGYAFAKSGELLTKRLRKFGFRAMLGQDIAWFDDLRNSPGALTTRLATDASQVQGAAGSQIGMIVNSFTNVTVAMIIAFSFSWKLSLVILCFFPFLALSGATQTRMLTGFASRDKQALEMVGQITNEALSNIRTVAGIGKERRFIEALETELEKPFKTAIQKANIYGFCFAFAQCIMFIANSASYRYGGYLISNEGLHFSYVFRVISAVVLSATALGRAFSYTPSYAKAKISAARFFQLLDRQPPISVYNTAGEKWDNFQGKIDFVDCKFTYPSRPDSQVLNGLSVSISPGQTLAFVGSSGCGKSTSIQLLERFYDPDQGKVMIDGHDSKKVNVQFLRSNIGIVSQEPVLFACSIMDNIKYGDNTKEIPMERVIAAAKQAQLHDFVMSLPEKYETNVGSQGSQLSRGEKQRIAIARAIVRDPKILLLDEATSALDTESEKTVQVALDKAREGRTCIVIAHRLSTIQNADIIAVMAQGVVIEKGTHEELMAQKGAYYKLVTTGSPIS

Turning to `CC(C)OC(=O)CCC/C=C\C[C@@H]1[C@@H](/C=C/[C@@H](O)COc2cccc(C(F)(F)F)c2)[C@H](O)C[C@@H]1O` [TRAVOPROST], the IC50 (commonly the concentration needed to halve the response being measured) in test [1] was more than 133 µM; in test [2] it was 74 µM; in test [3] it was 43.9 µM; in test [4], more than 133 µM.

For `CC1=C(/C=C/C(C)=C/C=C/C(C)=C/C(=O)O)C(C)(C)CCC1` [TRETINOIN], the IC50 in test [1], in test [2], in test [3] and in test [4] was more than 133 µM in each case.

As to `CC1(C)O[C@@H]2C[C@H]3[C@@H]4CCC5=CC(=O)C=C[C@]5(C)[C@@]4(F)[C@@H](O)C[C@]3(C)[C@]2(C(=O)CO)O1` [TRIAMCINOLONE ACETONIDE], the IC50 in test [1], in test [2], in test [3] and in test [4] was more than 133 µM throughout.

As to `CC(=O)OCC(=O)[C@@]1(O)[C@H](OC(C)=O)C[C@H]2[C@@H]3CCC4=CC(=O)C=C[C@]4(C)[C@@]3(F)[C@@H](O)C[C@@]21C` [TRIAMCINOLONE DIACETATE], the IC50 in test [1], in test [2], in test [3] and in test [4] was more than 133 µM throughout.

Turning to `C[C@]12CC[C@H]3[C@@H](CC[C@@]45O[C@@H]4C(O)=C(C#N)C[C@]35C)[C@@H]1CC[C@@H]2O` [TRILOSTANE], the IC50 in test [1], in test [2], in test [3] and in test [4] was more than 133 µM in each case.

With `COc1cc(Cc2cnc(N)nc2N)cc(OC)c1OC` [TRIMETHOPRIM], the IC50 in test [1], in test [2], in test [3] and in test [4] was more than 133 µM each time.

For `COc1cc2c3cc1Oc1cc(ccc1O)C[C@@H]1c4c(cc(OC)c(O)c4Oc4ccc(cc4)C[C@@H]3N(C)CC2)CC[N+]1(C)C` [TUBOCURARINE], the half-inhibitory concentration (IC50) in test [1] is more than 133 µM; in test [2], 9.6 µM; in test [3] it was more than 133 µM; in test [4], more than 133 µM.

`C=CCCCCCCCCC(=O)O` [UNDECYLENIC ACID]: the IC50 is more than 133 µM in test [1], 63.9 µM in test [2], more than 133 µM in test [3] and more than 133 µM in test [4].

`CC(C)[C@H](N)C(=O)OCCOCn1cnc2c(=O)[nH]c(N)nc21` [VALACYCLOVIR HYDROCHLORIDE]: the half-inhibitory concentration (IC50) in test [1], in test [2], in test [3] and in test [4] was more than 133 µM throughout.

On to `Cc1onc(-c2ccccc2)c1-c1ccc(S(N)(=O)=O)cc1` [VALDECOXIB], for which the concentration for half-maximal inhibition (IC50) in test [1], in test [2], in test [3] and in test [4] was more than 133 µM each time.

For `NC(=O)CC[C@@H]1NC(=O)[C@H](Cc2ccccc2)NC(=O)[C@H](Cc2ccc(O)cc2)NC(=O)[C@@H](N)CSSC[C@@H](C(=O)N2CCC[C@H]2C(=O)N[C@@H](CCCN=C(N)N)C(=O)NCC(N)=O)NC(=O)[C@H](CC(N)=O)NC1=O` [VASOPRESSIN], the IC50 in test [1], in test [2], in test [3] and in test [4] was more than 133 µM each time.

`CC(=O)O[C@H]1C[C@@H]2CC[C@@H]3[C@H](CC[C@@]4(C)[C@H]3C[C@H]([N+]3(C)CCCCC3)[C@@H]4OC(C)=O)[C@@]2(C)C[C@@H]1N1CCCCC1` [VECURONIUM BROMIDE]: the IC50 in test [1], in test [2], in test [3] and in test [4] was more than 133 µM in each case.

For `COc1ccc(C(CN(C)C)C2(O)CCCCC2)cc1` (configuration not stated) [VENLAFAXINE], the IC50 in test [1], in test [2], in test [3] and in test [4] was more than 133 µM each time.

On to `C=CC(N)CCC(=O)O` (configuration not stated) [VIGABATRIN], for which the IC50 in test [1], in test [2], in test [3] and in test [4] was more than 133 µM each time.

In the case of `N#C[C@@H]1CCCN1C(=O)CNC12CC3CC(CC(O)(C3)C1)C2` [VILDAGLIPTIN], the IC50 in test [1], in test [2], in test [3] and in test [4] was more than 133 µM each time.

With `CC[C@]1(O)C[C@@H]2CN(CCc3c([nH]c4ccccc34)[C@@](C(=O)OC)(c3cc4c(cc3OC)N(C)[C@H]3[C@@](O)(C(=O)OC)[C@H](OC(C)=O)[C@]5(CC)C=CCN6CC[C@]43[C@@H]65)C2)C1` [VINBLASTINE], the IC50 is more than 133 µM in test [1], 35.1 µM in test [2], more than 133 µM in test [3] and more than 133 µM in test [4].

`CC[C@]1(O)C[C@H]2CN(CCc3c([nH]c4ccccc34)[C@@](C(=O)OC)(c3cc4c(cc3OC)N(C=O)[C@H]3[C@@](O)(C(=O)OC)[C@H](OC(C)=O)[C@]5(CC)C=CCN6CC[C@]43[C@@H]65)C2)C1` [VINCRISTINE SULFATE]: the IC50 in test [1], in test [2], in test [3] and in test [4] was more than 133 µM each time.

As to `OCC(CO)N[C@H]1C[C@](O)(CO)[C@@H](O)[C@H](O)[C@H]1O` [VOGLIBOSE], the IC50 in test [1], in test [2], in test [3] and in test [4] was more than 133 µM throughout.

As to `O=C(CCCCCCC(=O)Nc1ccccc1)NO` [VORINOSTAT], the IC50 in test [1], in test [2], in test [3] and in test [4] was more than 133 µM throughout.

Turning to `CC(=O)CC(c1ccccc1)c1c(O)c2ccccc2oc1=O` (configuration not stated) [WARFARIN SODIUM], the IC50 in test [1], in test [2], in test [3] and in test [4] was more than 133 µM each time.

As to `O=C(NCCNCC(O)COc1ccc(O)cc1)N1CCOCC1` (configuration not stated) [XAMOTEROL], the concentration for half-maximal inhibition (IC50) in test [1], in test [2], in test [3] and in test [4] was more than 133 µM each time.

Turning to `Nc1ccn([C@H]2CC[C@@H](CO)O2)c(=O)n1` [ZALCITABINE], the IC50 in test [1], in test [2], in test [3] and in test [4] was more than 133 µM each time.

Regarding `CCN(C(C)=O)c1cccc(-c2ccnc3c(C#N)cnn23)c1` [ZALEPLON], the IC50 in test [1], in test [2], in test [3] and in test [4] was more than 133 µM each time.

As for `Cc1cn([C@H]2C[C@H](N=[N+]=[N-])[C@@H](CO)O2)c(=O)[nH]c1=O` [ZIDOVUDINE], the IC50 in test [1], in test [2], in test [3] and in test [4] was more than 133 µM throughout.

As for `CC(c1cc2ccccc2s1)N(O)C(N)=O` (configuration not stated) [ZILEUTON], the IC50 in test [1], in test [2], in test [3] and in test [4] was more than 133 µM each time.

For `O=C1Cc2cc(CCN3CCN(c4nsc5ccccc45)CC3)c(Cl)cc2N1` [ZIPRASIDONE MESYLATE], the concentration for half-maximal inhibition (IC50) in test [1], in test [2], in test [3] and in test [4] was more than 133 µM throughout.

On to `O=P(O)(O)C(O)(Cn1ccnc1)P(=O)(O)O` [ZOLEDRONIC ACID], for which the IC50 in test [1], in test [2], in test [3] and in test [4] was more than 133 µM in each case.

Turning to `CN(C)CCc1c[nH]c2ccc(C[C@H]3COC(=O)N3)cc12` [ZOLMITRIPTAN], the IC50 in test [1], in test [2], in test [3] and in test [4] was more than 133 µM in each case.
